Measured values published in patent US20260365653A1, “IRREVERSIBLE MUTEGFR INHIBITORS” (Bayer Aktiengesellschaft, priority 2022, published 2026).

Columns and labels:
[1] = target: T1, mutEGFR (D770_N771insNPG, T790) (Homo sapiens, UniProt P00533, INS770NPG/T790M); assay: mutEGFR (D770_N771insNPG, T790) kinase assay; type: biochemical; conditions: Table 2a, D770_N771insNPG
T1 construct: exact insNPG construct not described; in-house EGFR proteins were N-terminal GST fusions from baculovirus/insect cells (borders R669-A1210 given only for WT, insSVD, insASV)
T1 sequence (P00533 with tags, fused parts or gaps INS770NPG/T790M limits assumed): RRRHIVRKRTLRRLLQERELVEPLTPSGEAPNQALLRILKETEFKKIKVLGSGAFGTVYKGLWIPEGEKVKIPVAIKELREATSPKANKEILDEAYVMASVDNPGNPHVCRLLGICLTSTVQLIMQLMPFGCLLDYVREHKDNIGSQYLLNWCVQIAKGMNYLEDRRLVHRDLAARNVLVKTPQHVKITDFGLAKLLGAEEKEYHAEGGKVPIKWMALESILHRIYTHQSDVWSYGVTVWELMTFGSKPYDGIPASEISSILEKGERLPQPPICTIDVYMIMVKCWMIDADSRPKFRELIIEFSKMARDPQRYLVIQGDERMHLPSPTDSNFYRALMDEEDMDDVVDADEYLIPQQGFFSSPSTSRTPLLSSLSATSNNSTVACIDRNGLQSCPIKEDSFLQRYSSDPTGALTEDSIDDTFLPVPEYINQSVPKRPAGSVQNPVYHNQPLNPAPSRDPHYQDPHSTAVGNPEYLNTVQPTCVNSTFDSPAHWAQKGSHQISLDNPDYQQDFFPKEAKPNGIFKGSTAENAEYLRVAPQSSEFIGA
Source text: The different EGFR proteins used in the biochemical kinase activity inhibition assays were generated inhouse by expression in insect cells using Baculo Virus system and subsequent purification as described in the following paragraphs.
The cDNAs encoding the various protein sequences from human EGFR human (P00533) were optimized for expression in eukaryotic cells and synthesized by the GeneArt Technology at Life Technologies.

BA/F3 (insSVD) cells = assay: Ba/F3-EGFR-insSVD cell survival assay (Cell Titer-Glo); type: cell-based; conditions: Mus musculus, BaF3, 48 h, Table 3a, cell survival, Cell Titer-Glo, with 10 ng/ml EGF, without IL-3
How it was run: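 CellTiter-Glo luminescence read after 48 h compound exposure at 37° C. Cells: IL-3-independent Ba/F3 lines transduced with EGFR-insSVD or EGFR-insSVD T790M, maintained on 10 ng/ml EGF and seeded at 4000 per well.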

[2] = target: T2, mutEGFR (D770_N771insSVD) (Homo sapiens, UniProt P00533, DUP768-770); assay: Exon20-Mutant-EGFR (D770_N771insSVD) kinase assay (TR-FRET); type: biochemical; conditions: mutEGFR (D770_N771insSVD) kinase assay IC50, Table 2a; D770_N771insSVD; 2 mM ATP
T2 construct: GST-EGFR #3 (SVD between D770 and N771); made in house; host or cells: Sf9 insect cells (baculovirus)
T2 sequence (P00533 with tags, fused parts or gaps DUP768-770): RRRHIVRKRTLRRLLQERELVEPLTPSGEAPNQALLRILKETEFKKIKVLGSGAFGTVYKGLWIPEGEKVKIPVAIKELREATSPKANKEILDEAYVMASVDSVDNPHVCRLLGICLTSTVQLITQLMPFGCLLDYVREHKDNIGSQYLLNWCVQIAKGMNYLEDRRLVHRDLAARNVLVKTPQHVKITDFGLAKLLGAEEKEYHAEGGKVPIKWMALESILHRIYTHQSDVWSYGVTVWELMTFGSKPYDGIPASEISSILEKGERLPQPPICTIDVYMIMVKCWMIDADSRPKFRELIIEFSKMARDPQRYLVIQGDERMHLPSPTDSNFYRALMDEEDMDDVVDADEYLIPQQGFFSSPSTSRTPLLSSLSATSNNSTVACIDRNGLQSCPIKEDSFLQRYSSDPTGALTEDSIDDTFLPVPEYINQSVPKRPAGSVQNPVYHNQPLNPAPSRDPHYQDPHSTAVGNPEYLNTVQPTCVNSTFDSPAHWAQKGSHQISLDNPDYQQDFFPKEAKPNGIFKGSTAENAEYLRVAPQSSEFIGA

| SMILES | IC50 [1] | IC50 (BA/F3 (insSVD) cells) | IC50 [2] |
| --- | --- | --- | --- |
| CN(C)C/C=C/C(=O)N1CCn2nc(-c3ccc(Cl)cc3F)c(-c3ccnc4[nH]ccc34)c2C1 [Example 103, (2E)-1-[2-(4-chloro-2-fluorophenyl)-3-(1H-pyrrolo[2,3-b]pyridin-4-yl)-6,7-dihydropyrazolo[1,5-a]pyrazin-5(4H)-yl]-4-(dimethylamino)but-2-en-1-one] | 25.2 nM | 122 nM | 3.7 nM |
| C=CC(=O)N1CCn2nc(-c3ccc(Cl)cc3F)c(-c3ccnc4[nH]ccc34)c2C1 [Example 104, 1-[2-(4-chloro-2-fluorophenyl)-3-(1H-pyrrolo[2,3-b]pyridin-4-yl)-6,7-dihydropyrazolo[1,5-a]pyrazin-5(4H)-yl]prop-2-en-1-one] | 9.09 nM | 32 nM | 1.66 nM |
| C=CC(=O)N1CCn2nc(-c3ccc(F)c4ccoc34)c(-c3ccncc3)c2C1 [Example 105, 1-[2-(4-fluoro-1-benzofuran-7-yl)-3-(pyridin-4-yl)-6,7-dihydropyrazolo[1,5-a]pyrazin-5(4H)-yl]prop-2-en-1-one] | 1.57 nM | 233 nM | 1.48 nM |
| C=CC(=O)N1CCn2nc(-c3ccc(F)c4ccccc34)c(-c3ccncc3)c2C1 [Example 106, 1-[2-(4-fluoronaphthalen-1-yl)-3-(pyridin-4-yl)-6,7-dihydropyrazolo[1,5-a]pyrazin-5(4H)-yl]prop-2-en-1-one] | 0.546 nM | 214 nM | 0.528 nM |
| C=CC(=O)N1CCn2nc(-c3cccc4ccoc34)c(-c3ccncc3)c2C1 [Example 107] | 0.564 nM | 41.4 nM | 0.844 nM |
| C=CC(=O)N1CCn2nc(-c3ccc4c(C)c[nH]c4c3)c(-c3ccncc3)c2C1 [Example 108, 1-[2-(3-methyl-1H-indol-6-yl)-3-(pyridin-4-yl)-6,7-dihydropyrazolo[1,5-a]pyrazin-5(4H)-yl]prop-2-en-1-one] | 0.425 nM | 33.3 nM | 0.351 nM |
| C=CC(=O)N1CCn2nc(-c3cc4ccccc4cc3F)c(-c3ccncc3)c2C1 [Example 109, 1-[2-(3-fluoronaphthalen-2-yl)-3-(pyridin-4-yl)-6,7-dihydropyrazolo[1,5-a]pyrazin-5(4H)-yl]prop-2-en-1-one] | 0.149 nM | 42 nM | 0.111 nM |
| C=CC(=O)N1CCn2nc(-c3ccc(C)cc3F)c(-c3ccncc3)c2C1 [Example 110, 1-[2-(2-fluoro-4-methylphenyl)-3-(pyridin-4-yl)-6,7-dihydropyrazolo[1,5-a]pyrazin-5(4H)-yl]prop-2-en-1-one] | 1.93 nM | 33.2 nM | 0.75 nM |
| C=CC(=O)N1CCn2nc(-c3ccc4ccccc4c3F)c(-c3ccncc3)c2C1 [Example 111, 1-[2-(1-fluoronaphthalen-2-yl)-3-(pyridin-4-yl)-6,7-dihydropyrazolo[1,5-a]pyrazin-5(4H)-yl]prop-2-en-1-one] | 0.259 nM | 27.5 nM | 0.13 nM |
| C=CC(=O)N1CCn2nc(-c3cc4ccoc4cc3F)c(-c3ccncc3)c2C1 [Example 112, 1-[2-(6-fluoro-1-benzofuran-5-yl)-3-(pyridin-4-yl)-6,7-dihydropyrazolo[1,5-a]pyrazin-5(4H)-yl]prop-2-en-1-one] | 0.448 nM | 20.3 nM | 0.196 nM |
| C=CC(=O)N1CCn2nc(-c3ccc(C)cc3O)c(-c3ccncc3)c2C1 [Example 113, 1-[2-(2-hydroxy-4-methylphenyl)-3-(pyridin-4-yl)-6,7-dihydropyrazolo[1,5-a]pyrazin-5(4H)-yl]prop-2-en-1-one] | 3.91 nM | 55.5 nM | 1.76 nM |
| C=CC(=O)N1CCn2nc(-c3ccc4cc[nH]c4c3F)c(-c3ccncc3)c2C1 [Example 114] | 0.218 nM | 13.7 nM | 0.144 nM |
| C=CC(=O)N1CCn2nc(-c3ccc(Cl)cc3Cl)c(-c3ccncc3)c2C1 [Example 115, 1-[2-(2,4-dichlorophenyl)-3-(pyridin-4-yl)-6,7-dihydropyrazolo[1,5-a]pyrazin-5(4H)-yl]prop-2-en-1-one] | 0.949 nM | 42.2 nM | 0.22 nM |
| C=CC(=O)N1CCn2nc(-c3ccc(Cl)cc3OC)c(-c3ccncc3)c2C1 [Example 116, 1-[2-(4-chloro-2-methoxyphenyl)-3-(pyridin-4-yl)-6,7-dihydropyrazolo[1,5-a]pyrazin-5(4H)-yl]prop-2-en-1-one] | 11.5 nM | 635 nM | 8.38 nM |
| C=CC(=O)N1CCn2nc(-c3ccc(Cl)cc3C)c(-c3ccncc3)c2C1 [Example 117, 1-[2-(4-chloro-2-methylphenyl)-3-(pyridin-4-yl)-6,7-dihydropyrazolo[1,5-a]pyrazin-5(4H)-yl]prop-2-en-1-one] | 1.86 nM | 54.5 nM | 0.384 nM |
| C=CC(=O)N1CCn2nc(-c3ccc(Cl)c(C#N)c3)c(-c3ccncc3)c2C1 [Example 118, 2-chloro-5-[5-(prop-2-enoyl)-3-(pyridin-4-yl)-4,5,6,7-tetrahydropyrazolo[1,5-a]pyrazin-2-yl]benzonitrile] | 4.9 nM | 183 nM | 8.55 nM |
| C=CC(=O)N1CCn2nc(-c3ccc(F)c(C#N)c3)c(-c3ccncc3)c2C1 [Example 119, 2-fluoro-5-[5-(prop-2-enoyl)-3-(pyridin-4-yl)-4,5,6,7-tetrahydropyrazolo[1,5-a]pyrazin-2-yl]benzonitrile] | 7.03 nM | 153 nM | 23.2 nM |
| C=CC(=O)N1CCn2nc(-c3cccc(C#N)c3F)c(-c3ccncc3)c2C1 [Example 120, 2-fluoro-3-[5-(prop-2-enoyl)-3-(pyridin-4-yl)-4,5,6,7-tetrahydropyrazolo[1,5-a]pyrazin-2-yl]benzonitrile] | 50.3 nM | 933 nM | 50.5 nM |
| C=CC(=O)N1Cc2c(-c3ccncc3)c(-c3ccc(Cl)cc3)nn2C[C@@H]1C [Example 122, 1-[(6S)-2-(4-chlorophenyl)-6-methyl-3-(pyridin-4-yl)-6,7-dihydropyrazolo[1,5-a]pyrazin-5(4H)-yl]prop-2-en-1-one] | 0.803 nM | 13.8 nM | 0.369 nM |
| C=CC(=O)N1Cc2c(-c3ccncc3)c(-c3ccc(Cl)cc3)nn2C[C@H]1C [Example 123, 1-[(6R)-2-(4-chlorophenyl)-6-methyl-3-(pyridin-4-yl)-6,7-dihydropyrazolo[1,5-a]pyrazin-5(4H)-yl]prop-2-en-1-one] | 1.95 nM | 23.7 nM | 1.19 nM |
| C=CC(=O)N1Cc2c(-c3ccncc3)c(-c3ccc(C(F)(F)F)cc3F)nn2C[C@@H]1C [Example 124, 1-[(6S)-2-[2-fluoro-4-(trifluoromethyl)phenyl]-6-methyl-3-(pyridin-4-yl)-6,7-dihydropyrazolo[1,5-a]pyrazin-5(4H)-yl]prop-2-en-1-one] | 2.08 nM | 30.4 nM | 0.859 nM |
| C=CC(=O)N1Cc2c(-c3ccncc3)c(-c3cccc(C#N)c3)nn2C[C@H]1C [Example 126, 3-[(6R)-6-methyl-5-(prop-2-enoyl)-3-(pyridin-4-yl)-4,5,6,7-tetrahydropyrazolo[1,5-a]pyrazin-2-yl]benzonitrile] | 4.52 nM | 86.5 nM | 12.4 nM |
